Laboratory results reported in US20240139280A1, “USE OF HIF-1-ALPHA INHIBITORS IN CANCER IMMUNOTHERAPY” (ONCOC4, INC., priority 2021, published 2024).

Test system: MC38 tumor
Assay: MC38 tumor growth in mice
Type: in vivo
Conditions: echinomycin 0.15 mg/kg
Experimental: FIGS. 3A-D show the therapeutic effects of echinomycin on tumor growth in immunodeficient and immunocompetent mice. FIG. 3A. Experimental design. Three murine tumor lines were tested: 4T1, E0771, or MC38. For each, immunodeficient and immunocompetent mice were inoculated (day 0), and treatment was initiated with control liposomes (vehicle) or echinomycin liposomes (LEM) on day 6, indicated by arrows in FIGS. 3B-3D. The kinetics of tumor growth were compared to deduce the role of adaptive immunity in the therapeutic effects of echinomycin. FIG. 3B. 4T1 cells (1×10^6) were transplanted into mammary fat pad of NSG and BALB/c mice, which received vehicle or echinomycin (0.15 mg/kg) (arrows). Mean tumor volumes±SEM are shown for one of two independent experiments (n=10/group). FIG. 3C. Kinetics of E0771 tumor growth. E0771 cells (0.7×10^6) were transplanted into mammary fat pad of NSG and C57BL/6 mice, which received vehicle or echinomycin (0.25 mg/kg) (arrows). Mean tumor volumes±SEM are shown for one of two independent experiments (n=5/group). FIG. 3D. Kinetics of MC38 tumor growth. […]
Tumor Models The details of each experiment are specified in the figure legends. […] Tumor volumes were calculated and reported based on the formula […], where a is the longer diameter, and b is the shorter diameter. […]

CSC1SC[C@H]2C(=O)N(C)[C@@H](C(C)C)C(=O)OC[C@@H](NC(=O)c3cnc4ccccc4n3)C(=O)N[C@@H](C)C(=O)N(C)[C@@H]1C(=O)N(C)[C@@H](C(C)C)C(=O)OC[C@@H](NC(=O)c1cnc3ccccc3n1)C(=O)N[C@@H](C)C(=O)N2C (stereo in doubt) [echinomycin, N,N′-(2,4,12,15,17,25-hexamethyl-11,24-bis(1-methylethyl)-27-(methylthio)-3,6,10,13,16,19,23,26-octaoxo-9,22-dioxa-28-thia-2,5,12,15,18,25-hexaazabicyclo(12.12.3)nonacosane-7,20-diyl)bis(2-quinoxalinecarboxamide)]
MC38 tumor growth, combination study (C57BL/6, mAbs 0.2 mg/mouse/injection, vs vehicle): significant inhibition of tumor growth | MC38 tumor growth (C57BL/6 vs NSG): all therapeutic effects required immune competence
